Assay results reported in patent US10167262B2, “Herbicidal substituted 3-arylpyrazoles” (FMC CORPORATION, priority 2014, dated 2019).

Key:
Type in all cases: in vivo
[1] = test system: sedge, umbrella (small-flower umbrella sedge, Cyperus difformis); test: Test B flooded paddy test, plant response rating 0-100; details: Flood, 250 g ai/ha; scale 0 to 100 (0 no effect, 100 complete control); 13 to 15 days
In short: (§1)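 Flooded 3 cm over soil; compound into paddy water; depth kept constant. Greenhouse 13–15 d.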

rice (Oryza sativa) = test: as above; details: Flood, 250 g ai/ha; scale 0 to 100 (0 no effect, 100 complete control); 13 to 15 days
In short: as §1

[2] = test system: barnyardgrass (Echinochloa crus-galli); test: as above; details: Flood, 250 g ai/ha; scale 0 to 100 (0 no effect, 100 complete control); 13 to 15 days
In short: as §1

[3] = test system: ducksalad (Heteranthera limosa); test: as above; details: Flood, 250 g ai/ha; scale 0 to 100 (0 no effect, 100 complete control); 13 to 15 days
In short: as §1

[4] = test system: giant foxtail (Setaria faberii); test: Test A pre-/postemergence greenhouse herbicide test, visual injury rating 0-100
In short: (§2)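 Each species was treated both before emergence, via soil spray onto a loam–sand blend, and after emergence at the one- to two-leaf stage. Plants stayed in the greenhouse around 10 days before visual injury assessment.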

[5] = test system: barnyardgrass (Echinochloa crus-galli); test: as above
In short: as §2

[6] = test system: large (Lg) crabgrass (Digitaria sanguinalis); test: as above
In short: as §2

[7] = test system: wheat (Triticum aestivum); test: as above
In short: as §2

[8] = test system: pigweed (Amaranthus retroflexus); test: as above
In short: as §2

[9] = test system: velvetleaf (Abutilon theophrasti); test: as above
In short: as §2

[10] = test system: morningglory (Ipomoea spp.); test: as above
In short: as §2

corn (Zea mays) = test: as above
In short: as §2

Clc1ccc(NN=C(c2ccccc2)c2c[nH]nc2-c2cc(Cl)cc(Cl)c2)cc1 [Compound 65]
Plant response rating, Sedge, Umbrella [1]: 0
Plant response rating, Rice (rice (Oryza sativa)): 0
Plant response rating, Barnyardgrass [2]: 0
Plant response rating, Ducksalad [3]: 0
Plant response rating (0 to 100 scale), Foxtail, Giant ([4]; Postemergence, 1000 g ai/ha): 0
Plant response rating (0 to 100 scale), Foxtail, Giant ([4]; Preemergence, 1000 g ai/ha): 0
Plant response rating (0 to 100 scale), Barnyardgrass ([5]; Postemergence, 1000 g ai/ha): 0
Plant response rating (0 to 100 scale), Barnyardgrass ([5]; Preemergence, 1000 g ai/ha): 0
Plant response rating (0 to 100 scale), Crabgrass, Large ([6]; Postemergence, 1000 g ai/ha): 0
Plant response rating (0 to 100 scale), Crabgrass, Large ([6]; Preemergence, 1000 g ai/ha): 0
Plant response rating (0 to 100 scale), Wheat ([7]; Postemergence, 1000 g ai/ha): 0
Plant response rating (0 to 100 scale), Wheat ([7]; Preemergence, 1000 g ai/ha): 0
Plant response rating (0 to 100 scale), Pigweed ([8]; Postemergence, 1000 g ai/ha): 90
Plant response rating (0 to 100 scale), Pigweed ([8]; Preemergence, 1000 g ai/ha): 80
Plant response rating (0 to 100 scale), Velvetleaf ([9]; Postemergence, 1000 g ai/ha): 90
Plant response rating (0 to 100 scale), Velvetleaf ([9]; Preemergence, 1000 g ai/ha): 80
Plant response rating (0 to 100 scale), Morningglory ([10]; Postemergence, 1000 g ai/ha): 30
Plant response rating (0 to 100 scale), Morningglory ([10]; Preemergence, 1000 g ai/ha): 0
Plant response rating (0 to 100 scale), Corn (corn (Zea mays); Postemergence, 1000 g ai/ha): 0
Plant response rating (0 to 100 scale), Corn (corn (Zea mays); Preemergence, 1000 g ai/ha): 0

O=C(c1cncc(F)c1)c1c[nH]nc1-c1cc(F)cc(Cl)c1 [Compound 22]
Plant response rating, Sedge, Umbrella [1]: 0
Plant response rating, Rice (rice (Oryza sativa)): 0
Plant response rating, Barnyardgrass [2]: 0
Plant response rating, Ducksalad [3]: 0
Plant response rating (0 to 100 scale), Foxtail, Giant ([4]; Postemergence, 125 g ai/ha): 0
Plant response rating (0 to 100 scale), Foxtail, Giant ([4]; Postemergence, 500 g ai/ha): 0
Foxtail, Giant plant response rating (0 = no effect, 100 = complete control) ([4]; Preemergence, 125 g ai/ha): 0
Plant response rating (0 to 100 scale), Foxtail, Giant ([4]; Preemergence, 500 g ai/ha): 0
Plant response rating (0 to 100 scale), Barnyardgrass ([5]; Postemergence, 125 g ai/ha): 0
Plant response rating (0 to 100 scale), Barnyardgrass ([5]; Postemergence, 500 g ai/ha): 0
Barnyardgrass plant response rating (0 = no effect, 100 = complete control) ([5]; Preemergence, 125 g ai/ha): 0
Plant response rating (0 to 100 scale), Barnyardgrass ([5]; Preemergence, 500 g ai/ha): 0
Plant response rating (0 to 100 scale), Crabgrass, Large ([6]; Postemergence, 125 g ai/ha): 0
Plant response rating (0 to 100 scale), Crabgrass, Large ([6]; Postemergence, 500 g ai/ha): 0
Crabgrass, Large plant response rating (0 = no effect, 100 = complete control) ([6]; Preemergence, 125 g ai/ha): 0
Plant response rating (0 to 100 scale), Crabgrass, Large ([6]; Preemergence, 500 g ai/ha): 0
Plant response rating (0 to 100 scale), Wheat ([7]; Postemergence, 125 g ai/ha): 0
Plant response rating (0 to 100 scale), Wheat ([7]; Postemergence, 500 g ai/ha): 0
Wheat plant response rating (0 = no effect, 100 = complete control) ([7]; Preemergence, 125 g ai/ha): 0
Plant response rating (0 to 100 scale), Wheat ([7]; Preemergence, 500 g ai/ha): 0
Plant response rating (0 to 100 scale), Pigweed ([8]; Postemergence, 125 g ai/ha): 70
Plant response rating (0 to 100 scale), Pigweed ([8]; Postemergence, 500 g ai/ha): 100
Pigweed plant response rating (0 = no effect, 100 = complete control) ([8]; Preemergence, 125 g ai/ha): 60
Plant response rating (0 to 100 scale), Pigweed ([8]; Preemergence, 500 g ai/ha): 100
Plant response rating (0 to 100 scale), Velvetleaf ([9]; Postemergence, 125 g ai/ha): 60
Plant response rating (0 to 100 scale), Velvetleaf ([9]; Postemergence, 500 g ai/ha): 80
Velvetleaf plant response rating (0 = no effect, 100 = complete control) ([9]; Preemergence, 125 g ai/ha): 30
Plant response rating (0 to 100 scale), Velvetleaf ([9]; Preemergence, 500 g ai/ha): 60
Plant response rating (0 to 100 scale), Morningglory ([10]; Postemergence, 125 g ai/ha): 0
Plant response rating (0 to 100 scale), Morningglory ([10]; Postemergence, 500 g ai/ha): 0
Morningglory plant response rating (0 = no effect, 100 = complete control) ([10]; Preemergence, 125 g ai/ha): 0
Plant response rating (0 to 100 scale), Morningglory ([10]; Preemergence, 500 g ai/ha): 0
Plant response rating (0 to 100 scale), Corn (corn (Zea mays); Postemergence, 125 g ai/ha): 0
Plant response rating (0 to 100 scale), Corn (corn (Zea mays); Postemergence, 500 g ai/ha): 0
Corn plant response rating (0 = no effect, 100 = complete control) (corn (Zea mays); Preemergence, 125 g ai/ha): 0
Plant response rating (0 to 100 scale), Corn (corn (Zea mays); Preemergence, 500 g ai/ha): 0

Cn1cc(C(=O)c2cccnc2)c(-c2cc(Cl)cc(Cl)c2)n1 [Compound 6]
Plant response rating, Sedge, Umbrella [1]: 0
Plant response rating, Rice (rice (Oryza sativa)): 0
Plant response rating, Barnyardgrass [2]: 0
Plant response rating, Ducksalad [3]: 0
Plant response rating (0 to 100 scale), Foxtail, Giant ([4]; Postemergence, 125 g ai/ha): 0
Plant response rating (0 to 100 scale), Foxtail, Giant ([4]; Postemergence, 500 g ai/ha): 0
Foxtail, Giant plant response rating (0 = no effect, 100 = complete control) ([4]; Preemergence, 125 g ai/ha): 0
Plant response rating (0 to 100 scale), Foxtail, Giant ([4]; Preemergence, 500 g ai/ha): 0
Plant response rating (0 to 100 scale), Barnyardgrass ([5]; Postemergence, 125 g ai/ha): 0
Plant response rating (0 to 100 scale), Barnyardgrass ([5]; Postemergence, 500 g ai/ha): 0
Barnyardgrass plant response rating (0 = no effect, 100 = complete control) ([5]; Preemergence, 125 g ai/ha): 0
Plant response rating (0 to 100 scale), Barnyardgrass ([5]; Preemergence, 500 g ai/ha): 0
Plant response rating (0 to 100 scale), Crabgrass, Large ([6]; Postemergence, 125 g ai/ha): 0
Plant response rating (0 to 100 scale), Crabgrass, Large ([6]; Postemergence, 500 g ai/ha): 0
Crabgrass, Large plant response rating (0 = no effect, 100 = complete control) ([6]; Preemergence, 125 g ai/ha): 0
Plant response rating (0 to 100 scale), Crabgrass, Large ([6]; Preemergence, 500 g ai/ha): 0
Plant response rating (0 to 100 scale), Wheat ([7]; Postemergence, 125 g ai/ha): 0
Plant response rating (0 to 100 scale), Wheat ([7]; Postemergence, 500 g ai/ha): 0
Wheat plant response rating (0 = no effect, 100 = complete control) ([7]; Preemergence, 125 g ai/ha): 0
Plant response rating (0 to 100 scale), Wheat ([7]; Preemergence, 500 g ai/ha): 0
Plant response rating (0 to 100 scale), Pigweed ([8]; Postemergence, 125 g ai/ha): 0
Plant response rating (0 to 100 scale), Pigweed ([8]; Postemergence, 500 g ai/ha): 30
Pigweed plant response rating (0 = no effect, 100 = complete control) ([8]; Preemergence, 125 g ai/ha): 0
Plant response rating (0 to 100 scale), Pigweed ([8]; Preemergence, 500 g ai/ha): 20
Plant response rating (0 to 100 scale), Velvetleaf ([9]; Postemergence, 125 g ai/ha): 10
Plant response rating (0 to 100 scale), Velvetleaf ([9]; Postemergence, 500 g ai/ha): 10
Velvetleaf plant response rating (0 = no effect, 100 = complete control) ([9]; Preemergence, 125 g ai/ha): 0
Plant response rating (0 to 100 scale), Velvetleaf ([9]; Preemergence, 500 g ai/ha): 20
Plant response rating (0 to 100 scale), Morningglory ([10]; Postemergence, 125 g ai/ha): 0
Plant response rating (0 to 100 scale), Morningglory ([10]; Postemergence, 500 g ai/ha): 0
Morningglory plant response rating (0 = no effect, 100 = complete control) ([10]; Preemergence, 125 g ai/ha): 0
Plant response rating (0 to 100 scale), Morningglory ([10]; Preemergence, 500 g ai/ha): 0
Plant response rating (0 to 100 scale), Corn (corn (Zea mays); Postemergence, 125 g ai/ha): 0
Plant response rating (0 to 100 scale), Corn (corn (Zea mays); Postemergence, 500 g ai/ha): 0
Corn plant response rating (0 = no effect, 100 = complete control) (corn (Zea mays); Preemergence, 125 g ai/ha): 0
Plant response rating (0 to 100 scale), Corn (corn (Zea mays); Preemergence, 500 g ai/ha): 0
